From patent publication US20050069496A1, “Methods of screening, determining, developing and utilizing negative cross resistance toxins” (priority 2001, published 2005)
Like-named read-outs stand apart in the source and are kept apart here. Marks after values point to notes of the source that are not given here.

Key:
[1] = tested on: Canton-S (DDT susceptible flies) and para^tsl (DDT resistant flies); assay: Initial screen of DDT and 8 pyrethroids, Canton-S versus para^tsl flies; format: in vivo, Drosophila melanogaster; conditions: for Fly Line Preferentially Killed by the Toxin: across the doses
Protocol: A test was conducted utilizing an initial screen of DDT and 8 pyrethroids against Canton-S (DDT susceptible flies) and para^tsl (DDT resistant flies). […]

Canton-S flies = assay: Fly mortality bioassay, Canton-S; format: in vivo, Drosophila melanogaster; conditions: for Resistance Ratio: Canton-S, LD50 over LD50 of para^tsl males
Protocol: (§1) A test was conducted utilizing an initial screen of DDT and 8 pyrethroids against Canton-S (DDT susceptible flies) and para^tsl (DDT resistant flies).
(§2) As a further step in the test, heterozygotes were tested with either deltamethrin or DDT.

para^tsl flies = assay: Fly mortality bioassay, para^tsl; format: in vivo, Drosophila melanogaster; conditions: for Resistance Ratio: Para^tsl
Protocol: as §1, §2

heterozygous fly lines [2] = conditions: stated as known; cited from earlier work
heterozygous fly lines [3] = assay: Fly mortality bioassay, heterozygotes; format: in vivo, Drosophila melanogaster
Protocol: as §2
An additional test was conducted to determine if DDT and deltamethrin applied at the same time killed the heterozygotes.
FIG. 17 graphically illustrates the application of deltamethrin by itself 220, the application of DDT by itself 222, and the application of both deltamethrin and DDT at the same time 224 to para^tsl flies, Canton-S flies, and heterozygotes.

[4] = tested on: Mycosphaeralla graminicola Wild type and Tri R1 resistant strains; assay: Cross-resistance comparison of resistant and wild type fungal lines; format: cell-based; conditions: for Resistance Ratio: Tri R1 resistant versus wild type; for Resistance Type: compared to resistance to Triadimenol, not tested statistically; for Possible Resistance Type: after Bonferroni correction
Source text: In one embodiment, large-scale screens are utilized to determine NCR toxins that can be used against fungicide resistance. For such a screen, there will be one of three outcomes: (1) positive cross-resistance, (2) neutral (no cross-resistance), and (3) negative cross-resistance. Table 3 illustrates the EC50 for each toxin as given on two lines of Mycosphaeralla graminicola. The EC50 is the effective concentration that will kill fifty percent of the organisms in a test population. One line is Triadimenol susceptible and the other line is resistant to this compound. An estimate is made of the nature of resistance of these two lines to nine other toxins. The resistance is defined as (i) positive cross-resistance, (ii) negative cross-resistance or (iii) no cross-resistance (neutral) as compared to the resistance to Triadimenol (1RS,2RS;1RS,2RS)-1-(4chlorophenoxy)-3,3-dimethyl-1-(1H-1,2,4-trizol-1-yl) butan-1-o. Such a comparison is useful in a large-scale screen for NCR toxins for fungicides.
Three of the compounds listed in Table 3 are indicated as potential NCR toxins (Triflumizole, Ferarimol, and Nuarimol). In one embodiment, screening resources are used efficiently, i.e. the potential for identifying false-positives is minimized, by focusing on investigating potential NCR toxins through a test with a correction factor, such as a Bonferroni correction. Alternatively, other correction factors can be used including, but not limited to, Duncan's method. […] Where differential toxicity occurs between the two fungal lines on a given toxin, a difference in toxicity between the two lines is determined. If the fungal line that was resistant to the first toxin (e.g. Triadimenol) is now more susceptible to the new toxin (e.g. Triflumizole, Ferarimol, or Nuarimol) potential NCR toxin pairs are identified.
Differences between toxins, in terms of NCR activity, may be indicated where such differences may not truly exist (type I error in statistical hypothesis testing). In the present example, the confidence interval is extended using, for example, Bonferroni correction, which is needed to control for false positives in detection of NCR toxins in large-screen tests. A NCR factor is declared if the second toxin requires a lower dosage to kill the resistant line as compared to the wild type fungal line or lines. The consequences of a failure to use Bonferroni correction normally results in higher numbers of false positives in a large-scale screen. Toxins that are selected on the basis of no correction may still be considered as putative NCR toxins, but deserving less consideration than those identified using the correction method. A Bonferroni correction is thus performed on the three putative NCR toxins (and the reference toxin) to determine if one of the toxins is a NCR factor.
Table 4 illustrates the Bonferroni corrected data (from Table 3 above) of the reference compound (Triadimenol) and the three putative NCR toxins for fungicide resistance. The correction was made based on four compounds tested, each with minimally five doses to calculate the effective concentration fifty (EC50).

TF-FVIIa complex = TF-FVIIa complex (Homo sapiens, UniProt P08709); conditions: Inhibitor concentration ± standard error; read-out: FX activation (IC50); cited from earlier work
Sequence of TF-FVIIa complex (P08709 213-466 limits assumed): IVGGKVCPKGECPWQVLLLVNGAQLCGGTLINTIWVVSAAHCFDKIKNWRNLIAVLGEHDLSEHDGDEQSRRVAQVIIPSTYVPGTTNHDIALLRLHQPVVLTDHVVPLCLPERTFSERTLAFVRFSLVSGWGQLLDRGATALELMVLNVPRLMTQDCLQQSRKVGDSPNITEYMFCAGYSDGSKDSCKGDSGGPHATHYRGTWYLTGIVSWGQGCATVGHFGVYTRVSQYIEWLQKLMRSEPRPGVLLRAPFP
Sequence of TF-FVIIa complex (P08709 61-212 limits assumed): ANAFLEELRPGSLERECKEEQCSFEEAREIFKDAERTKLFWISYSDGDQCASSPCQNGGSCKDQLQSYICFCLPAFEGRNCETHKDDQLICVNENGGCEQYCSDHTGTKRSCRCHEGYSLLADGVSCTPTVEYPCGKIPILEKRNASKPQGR
Sequence of TF-FVIIa complex (P13726 33-295 partner): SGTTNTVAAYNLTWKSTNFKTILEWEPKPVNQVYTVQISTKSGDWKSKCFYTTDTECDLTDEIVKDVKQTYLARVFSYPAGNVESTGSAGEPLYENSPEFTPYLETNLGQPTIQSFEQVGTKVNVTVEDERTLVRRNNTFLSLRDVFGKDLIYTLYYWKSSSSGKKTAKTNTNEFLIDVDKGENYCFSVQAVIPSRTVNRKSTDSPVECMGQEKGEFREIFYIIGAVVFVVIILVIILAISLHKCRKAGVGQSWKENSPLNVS

[5] = tested on: Drosophila sodium channel, para, resistance mutation line; conditions: mutation not observed in nature; cited from earlier work

Which “Fly Line Preferentially Killed by the Toxin” value (shortened to “Fly Line Preferentially Killed”) [1] does the source give for `CC(C)[C@H](C(=O)O[C@H](C#N)c1cccc(Oc2ccccc2)c1)c1ccc(Cl)cc1` [Asana] here?
The value was “Neither”.

With `C=CCC1=C(C)C(OC(=O)C2C(C=C(C)C)C2(C)C)CC1=O` [D-trans allethrin] as the molecule, how does the “Fly Line Preferentially Killed” value [1] read?
The value was “Neither”.

For `Clc1ccc(C(c2ccc(Cl)cc2)C(Cl)(Cl)Cl)cc1` [DDT], which “Fly Line Preferentially Killed” value [1] is on record?
Its value is “Canton-S”.

And the “Percent Dead Cantons-S” value (Canton-S flies; Dose 0.2)?
The value was 11.7%.

And the “Percent Dead Cantons-S” value (Canton-S flies; Dose 0.5)?
The value was 8.3%.

And the “Percent Dead Cantons-S” value (Canton-S flies; Dose 1)?
Its value is 6.7%.

And the “Percent Dead Cantons-S” value (Canton-S flies; Dose 2)?
Its value is 15.0%.

What about the “Percent Dead Cantons-S” value (Canton-S flies; Dose 5) of the same molecule?
The value was 35.0%.

What about the “Percent Dead Cantons-S” value (Canton-S flies; Dose 8) of the same molecule?
The value was 48.3%.

And the “Percent Dead Cantons-S” value (Canton-S flies; Dose 10)?
Its value is 43.3%.

What about the “Percent Dead Cantons-S” value (Canton-S flies; Dose 15) of the same molecule?
The value was 75.0%.

And the “Percent Dead Cantons-S” value (Canton-S flies; Dose 20)?
The value was 71.7%.

What about the “Percent Dead Para^tsl” value (para^tsl flies; Dose 0.2) of the same molecule?
The value was 13.3%.

And the “Percent Dead Para^tsl” value (para^tsl flies; Dose 0.5)?
The value was 0%.

And the “Percent Dead Para^tsl” value (para^tsl flies; Dose 1)?
Its value is 0%.

And the “Percent Dead Para^tsl” value (para^tsl flies; Dose 2)?
Its value is 3.3%.

What about the “Percent Dead Para^tsl” value (para^tsl flies; Dose 5) of the same molecule?
The value was 6.7%.

And the “Percent Dead Para^tsl” value (para^tsl flies; Dose 8)?
The value was 23.3%.

And the “Percent Dead Para^tsl” value (para^tsl flies; Dose 10)?
The value was 13.3%.

And the “Percent Dead Para^tsl” value (para^tsl flies; Dose 15)?
Its value is 8.3%.

And the “Percent Dead Para^tsl” value (para^tsl flies; Dose 20)?
Its value is 6.7%.

What about the Resistance of heterozygotes (heterozygous fly lines [2]) of the same molecule?
Its Resistance of heterozygotes is “heterozygotes are resistant to DDT”.

Which “Fly Line Preferentially Killed” value [1] does the source give for `CC1(C)[C@H](C(=O)O[C@H](C#N)c2cccc(Oc3ccccc3)c2)[C@@H]1C=C(Br)Br` [Deltamethrin] here?
Its value is “Para^tsl”.

And the “Fly Line Preferentially Killed” value ([1]; listed as deltamethrin)?
Its value is “more toxic to para^tsl flies than to Canton-S flies”.

What about the “Preferential killing when tested by individual doses” value ([1]; individual doses) of the same molecule?
The value was “preferentially killed para^tsl flies”.

And the “Resistance Ratio” value (Canton-S flies; Female)?
Its value is 24.7.

And the “Resistance Ratio” value (Canton-S flies; Male)?
Its value is 9.9.

And the “Percent Dead Cantons-S” value (Canton-S flies; Dose 0.2)?
Its value is 31.7%.

What about the “Percent Dead Cantons-S” value (Canton-S flies; Dose 0.5) of the same molecule?
Its value is 56.7%.

And the “Percent Dead Cantons-S” value (Canton-S flies; Dose 1)?
Its value is 26.7%.

What about the “Percent Dead Cantons-S” value (Canton-S flies; Dose 2) of the same molecule?
Its value is 93.3%.

What about the “Percent Dead Cantons-S” value (Canton-S flies; Dose 5) of the same molecule?
Its value is 100%.

What about the “Percent Dead Cantons-S” value (Canton-S flies; Dose 8) of the same molecule?
Its value is 96.7%.

And the “Percent Dead Cantons-S” value (Canton-S flies; Dose 10)?
The value was 98.3%.

What about the “Percent Dead Cantons-S” value (Canton-S flies; Dose 15) of the same molecule?
Its value is 100%.

What about the “Percent Dead Cantons-S” value (Canton-S flies; Dose 20) of the same molecule?
Its value is 98.3%.

What about the “Percent Dead Para^tsl” value (para^tsl flies; Dose 0.2) of the same molecule?
The value was 98.3%.

And the “Percent Dead Para^tsl” value (para^tsl flies; Dose 0.5)?
The value was 100%.

And the “Percent Dead Para^tsl” value (para^tsl flies; Dose 1)?
Its value is 85.0%.

What about the “Percent Dead Para^tsl” value (para^tsl flies; Dose 2) of the same molecule?
Its value is 100%.

What about the “Percent Dead Para^tsl” value (para^tsl flies; Dose 5) of the same molecule?
The value was 100%.

What about the “Percent Dead Para^tsl” value (para^tsl flies; Dose 8) of the same molecule?
Its value is 100%.

And the “Percent Dead Para^tsl” value (para^tsl flies; Dose 10)?
Its value is 98.3%.

And the “Percent Dead Para^tsl” value (para^tsl flies; Dose 15)?
Its value is 100%.

And the “Percent Dead Para^tsl” value (para^tsl flies; Dose 20)?
Its value is 100%.

And the “Resistance Ratio” value (para^tsl flies; Female, LD50 over LD50 of para^tsl males)?
Its value is 1.4.

What about the “Resistance Ratio” value (para^tsl flies; Male, denominator line) of the same molecule?
Its value is 1.0*.

What about the “Resistance Ratio” value (heterozygous fly lines [3]; Heterozygotes, Female, LD50 over LD50 of para^tsl males) of the same molecule?
The value was 21.5.

What about the Resistance of heterozygotes (heterozygous fly lines [3]; from Table 8) of the same molecule?
The Resistance of heterozygotes was “resistant to deltamethrin and resistance is dominant”.

Which “Resistance Ratio” value [4] does the source give for `CC(Cc1ccc(C(C)(C)C)cc1)CN1C[C@@H](C)O[C@@H](C)C1` (stereo partly shown) [Fenpropimorph] here?
The value was 0.9.

And the “Resistance Type” value [4]?
Its value is “Neutral”.

Which “Resistance Ratio” value [4] does the source give for `OC(c1ccc(Cl)cc1)(c1cncnc1)c1ccccc1Cl` (stereo not shown) [Ferarimol] here?
Its value is 0.3.

And the “Possible Resistance Type” value [4]?
Its value is “Negative”.

What about the “Resistance Type” value [4] of the same molecule?
Its value is “Negative”.

With `O=c1c2cc(F)ccc2nc(-n2cncn2)n1-c1ccc(Cl)cc1Cl` [Fluquinconazole] as the molecule, how does the “Resistance Ratio” value [4] read?
Its value is 0.4.

And the “Resistance Type” value [4]?
The value was “Negative”.

What does the source list for `C[Si](Cn1cncn1)(c1ccc(F)cc1)c1ccc(F)cc1` [Flusilazole]?
Resistance Ratio [4]: 4.2; Resistance Type [4]: Positive

What does the source list for `C=CCOC(Cn1ccnc1)c1ccc(Cl)cc1Cl` (stereo not shown) [Imazalil]?
Resistance Ratio [4]: 5.0; Resistance Type [4]: Positive

For `OC(c1ccc(F)cc1)(c1cncnc1)c1ccccc1Cl` (stereo not shown) [Nuarimol], which “Resistance Ratio” value [4] is on record?
The value was 0.4.

And the “Possible Resistance Type” value [4]?
The value was “Negative”.

And the “Resistance Type” value [4]?
Its value is “Negative”.

For `CC1(C)[C@H](/C=C(\Cl)C(F)(F)F)[C@@H]1C(=O)O[C@@H](C#N)c1cccc(Oc2ccccc2)c1` [PP321], which “Fly Line Preferentially Killed” value [1] is on record?
Its value is “Neither”.

For `Cc1c(F)c(F)c(COC(=O)[C@H]2[C@@H](/C=C(\Cl)C(F)(F)F)C2(C)C)c(F)c1F` [PP993], which “Fly Line Preferentially Killed” value [1] is on record?
The value was “Canton-S”.

Which “Fly Line Preferentially Killed” value [1] does the source give for `CC1(C)C(C=C(Cl)Cl)C1C(=O)OCc1cccc(Oc2ccccc2)c1` (stereo not shown) [Permethrin] here?
Its value is “Para^tsl”.

What about the “Fly Line Preferentially Killed” value ([1]; listed as permethrin) of the same molecule?
Its value is “more toxic to para^tsl flies than to Canton-S flies”.

With `CCCN(CCOc1c(Cl)cc(Cl)cc1Cl)C(=O)n1ccnc1` [Prochloraz] as the molecule, how does the “Resistance Ratio” value [4] read?
Its value is 3.3.

And the “Resistance Type” value [4]?
Its value is “Positive”.

For `CC(C)=CC1C(C(=O)OCc2coc(Cc3ccccc3)c2)C1(C)C` (stereo not shown) [Resmethrin], which “Fly Line Preferentially Killed” value [1] is on record?
The value was “Para^tsl”.

Which “Resistance Ratio” value [4] does the source give for `CC(C)(C)C(O)(CCc1ccc(Cl)cc1)Cn1cncn1` (stereo not shown) [Tebuconazole] here?
Its value is 3.3.

What about the “Resistance Type” value [4] of the same molecule?
The value was “Positive”.

Which “Fly Line Preferentially Killed” value [1] does the source give for `CC1(C)C(C=C(Cl)Cl)C1C(=O)OC(C#N)c1ccc(F)c(Oc2ccccc2)c1` (stereo not shown) [Tempo] here?
Its value is “Para^tsl”.

With `CC(C)(C)C(O)C(Oc1ccc(Cl)cc1)n1cncn1` (stereo not drawn) [Triadimenol, (1RS,2RS;1RS,2RS)-1-(4chlorophenoxy)-3,3-dimethyl-1-(1H-1,2,4-trizol-1-yl) butan-1-o] as the molecule, how does the “Resistance Ratio” value [4] read?
The value was 31.

What does the source list for `CCCOC/C(=N\c1ccc(Cl)cc1C(F)(F)F)n1ccnc1` [Triflumizole]?
Resistance Ratio [4]: 0.3; Possible Resistance Type [4]: Neutral (n.s.)†; Resistance Type [4]: Negative

With “consensus sequence from the hard randomization, C (MEEWEVLCWTWETCERGEGQ), Z-domain fusion [C-Z]” as the molecule, how does the IC50 (TF-FVIIa complex) read?
Its IC50 is 5.9 ± 0.9 nM.

B1: AaIT: a protein isolated from Scorpion toxin (protein, UniProt P01497 19-88, looked up)
Beta-insect excitatory toxin 1: KKNGYAVDSSGKAPECLLSNYCNNECTKVHYADKGYCCLLSCYCFGLNDDKKVLEISDTRKSYCDTTIIN
For B1, which “NCR in a resistance mutation line” value [5] is on record?
The value was “no NCR”.
